The source of these data is patent publication US9120774B2 (University of Kansas, priority 2009, dated 2015).

The test system of test [1] is SkBr3 (Her2 overexpressing breast cancer cells). Briefly: Anti-proliferation activity against SkBr3 cells (MTS/PMS). To be noted: read-out: IC50, SKBr3. Type of test: cell-based. How it is done: (§1) Upon completion of synthesis of library of compounds in Examples 23 and 24, the compounds were evaluated for anti-proliferative activity against SkBr3 (Her2 overexpressing breast cancer cells), MCF-7 (estrogen receptor positive breast cancer cells), HCT-116 (colon cancer cells characterized by wild-type p53), PL45 (pancreatic cancer cells), LNCaP (androgen sensitive prostate cancer cells) and PC-3 (androgen independent prostate cancer cells) cell lines.
(§2) Cells were maintained in a 1:1 mixture of Advanced DMEM/F12 (Gibco) supplemented with non-essential amino acids, L-glutamine (2 mM), streptomycin (500 ng/mL), penicillin (100 units/mL), and 10% FBS. Cells were grown to confluence in a humidified atmosphere (37° C., 5% CO2), seeded (2000/well, 100 μl) in 96-well plates, and allowed to attach overnight. Compound or GDA at varying concentrations in DMSO (1% DMSO final concentration) was added, and cells were returned to the incubator for 72 hours. At 72 hours, the number of viable cells was determined using an MTS/PMS cell proliferation kit (Promega) per the manufacturer's instructions. Cells incubated in 1% DMSO were used at 100% proliferation, and values were adjusted accordingly. IC50 values were calculated from separate experiments performed in triplicate using GraphPad Prism.
as §2, with “μg/mL),” for “ng/mL),”, “μL)” for “μl)”

Test [2] concerns MCF-7 (estrogen receptor positive breast cancer cells). Briefly: Anti-proliferation activity against MCF-7 cells (MTS/PMS). It is filed as cell-based. How it is done: as §1, §2
as §2, with “μg/mL),” for “ng/mL),”, “μL)” for “μl)”

[3] abbreviates: Homo sapiens, SK-BR-3, Table 18, modified furanose or pyranose noviose replacements.
[4] abbreviates: Homo sapiens, MCF7, Table 18, modified furanose or pyranose noviose replacements, read-out: IC50, MCF7.
[5] abbreviates: Table 19, 7-oxyalkylamino and 7-oxypiperidinyl analogues.
Where [6] appears, read: Table 19, 7-oxyalkylamino and 7-oxypiperidinyl analogues, read-out: IC50, MCF-7.
Setting [7] is: Homo sapiens, SK-BR-3, Table 19, 7-oxyalkylamino and 7-oxypiperidinyl analogues.
[8] abbreviates: Homo sapiens, MCF7, Table 19, 7-oxyalkylamino and 7-oxypiperidinyl analogues, read-out: IC50, MCF-7.

Where two headings read alike, the source gives them in different places. Some results are limits rather than exact numbers.

As usually defined, the IC50 is the point on the concentration scale where inhibition reaches its midpoint. `CC(C)=CCc1cc(C(=O)Nc2cc3ccc(O[C@H]4OCC[C@@H](O)[C@H]4O)c(C)c3oc2=O)ccc1O` [16a, KU-425, N-(7-((2R,3R,4R)-3,4-dihydroxytetrahydro-2H-pyran-2-yloxy)-8-methyl-2-oxo-2H-chromen-3-yl)-4-hydroxy-3-(3-methylbut-2-enyl)benzamide]: the half-maximal inhibitory concentration (IC50) in test [1] (setting [3]) was 10680 ± 50 nM; in test [2] (setting [4]), 10040 ± 30 nM. The matching figures for `CC(C)=CCc1cc(C(=O)Nc2cc3ccc(O[C@@H]4OCC[C@@H](O)[C@H]4O)c(C)c3oc2=O)ccc1O` [16b, KU-426, N-(7-((2S,3R,4R)-3,4-dihydroxytetrahydro-2H-pyran-2-yloxy)-8-methyl-2-oxo-2H-chromen-3-yl)-4-hydroxy-3-(3-methylbut-2-enyl)benzamide]: 6960 ± 60 nM and 13300 ± 210 nM. The matching figures for `CC(C)=CCc1cc(C(=O)Nc2cc3ccc(O[C@H]4OCCC[C@H]4O)c(C)c3oc2=O)ccc1O` [17a, KU-427, 4-Hydroxy-N-(7-((2R,3R)-3-hydroxytetrahydro-2H-pyran-2-yloxy)-8-methyl-2-oxo-2H-chromen-3-yl)-3-(3-methylbut-2-enyl)benzamide]: 7870 ± 40 nM and 6450 ± 130 nM. The matching figures for `CC(C)=CCc1cc(C(=O)Nc2cc3ccc(O[C@@H]4OCCC[C@H]4O)c(C)c3oc2=O)ccc1O` [17b, KU-428, 4-Hydroxy-N-(7-((2S,3R)-3-hydroxytetrahydro-2H-pyran-2-yloxy)-8-methyl-2-oxo-2H-chromen-3-yl)-3-(3-methylbut-2-enyl)benzamide]: 30000 ± 2070 nM and 10200 ± 210 nM.

In the case of `CC(C)=CCc1cc(C(=O)Nc2cc3ccc(O[C@H]4C[C@H](O)CCO4)c(C)c3oc2=O)ccc1O` [18a, KU-429, 4-Hydroxy-N-(7-((2S,4R)-4-hydroxytetrahydro-2H-pyran-2-yloxy)-8-methyl-2-oxo-2H-chromen-3-yl)-3-(3-methylbut-2-enyl)benzamide], the IC50 worked out at 5070 ± 230 nM in test [1] (setting [3]) and 1340 ± 180 nM in test [2] (setting [4]). Consider `CC(=O)Oc1ccc(C(=O)Nc2cc3ccc(O[C@@H]4OC[C@H](O)[C@@H]4O)c(C)c3oc2=O)cc1CC=C(C)C` [19, KU-431, 4-(7-((2S,3S,4S)-3,4-Dihydroxytetrahydrofuran-2-yloxy)-8-methyl-2-oxo-2H-chromen-3-ylcarbamoyl)-2-(3-methylbut-2-enyl)phenyl acetate], for which the IC50 in test [1] (setting [3]) stood at 14400 ± 520 nM; in test [2] (setting [4]), 14300 ± 400 nM.

As to `CC(=O)Oc1ccc(C(=O)Nc2cc3ccc(O[C@H]4C[C@@H](O)CO4)c(C)c3oc2=O)cc1CC=C(C)C` [20a, KU-432, 4-(7-((2S,4R)-4-Hydroxytetrahydrofuran-2-yloxy)-8-methyl-2-oxo-2H-chromen-3-ylcarbamoyl)-2-(3-methylbut-2-enyl)phenyl acetate], the figures for the IC50 in test [1] (setting [3]) and in test [2] (setting [4]) were 22200 ± 940 nM and over 100000 nM, respectively. In the same order, the values of `CC(=O)Oc1ccc(C(=O)Nc2cc3ccc(O[C@@H]4C[C@@H](O)CO4)c(C)c3oc2=O)cc1CC=C(C)C` [20b, KU-433, 4-(7-((2R,4R)-4-Hydroxytetrahydrofuran-2-yloxy)-8-methyl-2-oxo-2H-chromen-3-ylcarbamoyl)-2-(3-methylbut-2-enyl)phenyl acetate] are 21500 ± 2280 nM and 22500 ± 400 nM. In the case of `CC(=O)Oc1ccc(C(=O)Nc2cc3ccc(OC4CCN(C)CC4)c(C)c3oc2=O)cc1CC=C(C)C` [29a, KU-397, 4-(8-Methyl-7-(1-methylpiperidin-4-yloxy)-2-oxo-2H-chromen-3-ylcarbamoyl)-2-(3-methylbut-2-enyl)phenyl acetate], in test [1] (setting [5]), the IC50 is 1180 ± 200 nM. For `CC(=O)Oc1ccc(C(=O)Nc2cc3ccc(OC4CCCN(C)C4)c(C)c3oc2=O)cc1CC=C(C)C` (centres unmarked) [29c, KU-417, 4-(8-Methyl-7-(1-methylpiperidin-3-yloxy)-2-oxo-2H-chromen-3-ylcarbamoyl)-2-(3-methylbut-2-enyl)phenyl acetate], the IC50 in test [1] (setting [5]) was 1570 ± 50 nM; in test [2] (setting [6]) it was 1420 ± 20 nM.

As for `CC(=O)Oc1ccc(C(=O)Nc2cc3ccc(OCCN(C)C)c(C)c3oc2=O)cc1CC=C(C)C` [29e, KU-421, 4-(7-(2-(Dimethylamino)ethoxy)-8-methyl-2-oxo-2H-chromen-3-ylcarbamoyl)-2-(3-methylbut-2-enyl)phenyl acetate], the half-inhibitory concentration (IC50) in test [1] (setting [5]) came to 4760 ± 520 nM; in test [2] (setting [6]), 1320 nM. As to `CC(=O)Oc1ccc(C(=O)Nc2cc3ccc(OCCCN(C)C)c(C)c3oc2=O)cc1CC=C(C)C` [29f, KU-406, 4-(7-(3-(Dimethylamino)propoxy)-8-methyl-2-oxo-2H-chromen-3-ylcarbamoyl)-2-(3-methylbut-2-enyl)phenyl acetate], the IC50 is 1180 ± 30 nM in test [1] (setting [5]) and 460 ± 190 nM in test [2] (setting [6]). In the same order, the values of `CC(=O)Oc1ccc(C(=O)Nc2cc3ccc(OC4CCNCC4)c(C)c3oc2=O)cc1CC=C(C)C` [30b, KU-415, 4-(8-methyl-2-oxo-7-(piperidin-4-yloxy)-2H-chromen-3-ylcarbamoyl)-2-(3-methylbut-2-enyl)phenyl acetate] are 1530 ± 140 nM and 770 ± 270 nM. The matching figures for `CC(=O)Oc1ccc(C(=O)Nc2cc3ccc(OC4CCCNC4)c(C)c3oc2=O)cc1CC=C(C)C` (centres unmarked) [30d, KU-419, 4-(8-methyl-2-oxo-7-(piperidin-3-yloxy)-2H-chromen-3-ylcarbamoyl)-2-(3-methylbut-2-enyl)phenyl acetate]: 1540 ± 110 nM and 1230 nM. The matching figures for `CNCCOc1ccc2cc(NC(=O)c3ccc(OC(C)=O)c(CC=C(C)C)c3)c(=O)oc2c1C` [30g, KU-423, 4-(8-methyl-7-(2-(methylamino)ethoxy)-2-oxo-2H-chromen-3-ylcarbamoyl)-2-(3-methylbut-2-enyl)phenyl acetate]: 2080 ± 130 nM and 910 ± 210 nM. `CC(C)=CCc1cc(C(=O)Nc2cc3ccc(OC4CCN(C)CC4)c(C)c3oc2=O)ccc1O` [31a, KU-398, 4-Hydroxy-N-(8-methyl-7-(1-methylpiperidin-4-yloxy)-2-oxo-2H-chromen-3-yl)-3-(3-methylbut-2-enyl)benzamide]: the half-inhibitory concentration (IC50) in test [1] (setting [7]) was 1090 ± 100 nM.

Regarding `CC(C)=CCc1cc(C(=O)Nc2cc3ccc(OC4CCNCC4)c(C)c3oc2=O)ccc1O` [31b, KU-416, 4-Hydroxy-N-(8-methyl-2-oxo-7-(piperidin-4-yloxy)-2H-chromen-3-yl)-3-(3-methylbut-2-enyl)benzamide], the IC50 was 850 ± 90 nM in test [1] (setting [7]) and 470 ± 100 nM in test [2] (setting [8]). The matching figures for `CC(C)=CCc1cc(C(=O)Nc2cc3ccc(OC4CCCN(C)C4)c(C)c3oc2=O)ccc1O` (centres unmarked) [31c, KU-418, 4-Hydroxy-N-(8-methyl-7-(1-methylpiperidin-3-yloxy)-2-oxo-2H-chromen-3-yl)-3-(3-methylbut-2-enyl)benzamide]: 10100 ± 170 nM and 4690 ± 160 nM. In the same order, the values of `CC(C)=CCc1cc(C(=O)Nc2cc3ccc(OC4CCCNC4)c(C)c3oc2=O)ccc1O` (centres unmarked) [31d, KU-420, 4-Hydroxy-N-(8-methyl-2-oxo-7-(piperidin-3-yloxy)-2H-chromen-3-yl)-3-(3-methylbut-2-enyl)benzamide] are 2110 ± 580 nM and 790 ± 110 nM. In the case of `CC(C)=CCc1cc(C(=O)Nc2cc3ccc(OCCN(C)C)c(C)c3oc2=O)ccc1O` [31e, KU-422, N-(7-(2-(Dimethylamino)ethoxy)-8-methyl-2-oxo-2H-chromen-3-yl)-4-hydroxy-3-(3-methylbut-2-enyl)benzamide], the values for the IC50 in test [1] (setting [7]) and in test [2] (setting [8]) were 52700 nM and 9450 ± 220 nM, respectively. The matching figures for `CC(C)=CCc1cc(C(=O)Nc2cc3ccc(OCCCN(C)C)c(C)c3oc2=O)ccc1O` [31f, KU-407, N-(7-(3-(Dimethylamino)propoxy)-8-methyl-2-oxo-2H-chromen-3-yl)-4-hydroxy-3-(3-methylbut-2-enyl)benzamide]: 1350 ± 380 nM and 440 ± 20 nM. For `CNCCOc1ccc2cc(NC(=O)c3ccc(O)c(CC=C(C)C)c3)c(=O)oc2c1C` [31g, KU-424, 4-Hydroxy-N-(8-methyl-7-(2-(methylamino)ethoxy)-2-oxo-2H-chromen-3-yl)-3-(3-methylbut-2-enyl)benzamide], the IC50 in test [1] (setting [7]) stood at 1330 ± 10 nM; in test [2] (setting [8]), 750 ± 120 nM. As for `Cc1c(OC2CCN(C)CC2)ccc2cc(NC(=O)c3cc4cc(Cl)ccc4[nH]3)c(=O)oc12` [KU-380], the IC50 came to 350 ± 210 nM in test [1] (Homo sapiens, SK-BR-3, Table 21, substituted indole-2-carboxamide analogues with noviose replacements) and 90 ± 30 nM in test [2] (Homo sapiens, MCF7, Table 21, substituted indole-2-carboxamide analogues with noviose replacements, read-out: IC50, MCF-7).
